Data from ChEMBL document CHEMBL6153126, “Design, Synthesis, and Activity Evaluation of Novel Bifenamide Dual-Target Antibacterial Inhibitors and Carrier Based on Infectious Microenvironment” (J Med Chem, 2025).
Active and inactive are the calls of the source. The rule behind the calls is not given here.

Tests used:
Pseudomonas aeruginosa [1] = experiment: Antimicrobial activity against Pseudomonas aeruginosa ATCC 9027 assessed as inhibition of microbial growth incubated for 64 hrs by broth-microdilution assay; type: functional
Klebsiella pneumoniae [2] = experiment: Downregulation of PD-L1 expression in Klebsiella pneumoniae ATCC 13883 by Western blot analysis; type: functional
[3] = Toxicity in Kunming mouse assessed as change in BUN level at 2 mg/kg, iv (reference value: 11.2 +/- 2 mmol/L); type: organism-based; conditions: in vivo
Klebsiella pneumoniae [4] = experiment: Induction of morphological changes in Klebsiella pneumoniae ATCC 13883 assessed as leakage in cellular contents measured for 96 hrs by transmission electron microscopy analysis; type: functional, organism-based
Klebsiella pneumoniae [5] = experiment: Downregulation of IFN-gamma expression in Klebsiella pneumoniae ATCC 13883 by Western blot analysis; type: functional
Klebsiella pneumoniae [6] = experiment: Induction of morphological changes in Klebsiella pneumoniae ATCC 13883 assessed as leakage in cellular contents measured for 48 hrs by transmission electron microscopy analysis; type: functional, organism-based
Klebsiella pneumoniae [7] = experiment: Bactericidal activity against Klebsiella pneumoniae ATCC 13883 assessed as reduction in survival rate by colony counting method; type: functional
Klebsiella pneumoniae [8] = experiment: Downregulation of MMP9 expression in Klebsiella pneumoniae ATCC 13883 by Western blot analysis; type: functional
Klebsiella pneumoniae [9] = experiment: Downregulation of NF-kappaB expression in Klebsiella pneumoniae ATCC 13883 by Western blot analysis; type: functional
Klebsiella pneumoniae [10] = experiment: Antibacterial activity against Klebsiella pneumoniae ATCC 13883 infected in Kunming mouse model assessed as reduction in alveolar space in lung at 2 mg/kg, iv by H and E staining based analysis; type: functional, organism-based
Klebsiella pneumoniae [11] = experiment: Downregulation of NLRP3 expression in Klebsiella pneumoniae ATCC 13883 by Western blot analysis; type: functional
[12] = target: Programmed cell death protein 1/Programmed cell death 1 ligand 1 (Homo sapiens, UniProt Q9NZQ7); experiment: Inhibition of PD-1/PD-L1 (unknown origin) protein-protein interaction preincubated for 15 mins followed by PD-1-Eu addition and measured after 90 mins by TR-FRET assay; type: protein-complex assay
Klebsiella pneumoniae [13] = experiment: Antimicrobial activity against Klebsiella pneumoniae ATCC 13883 assessed as inhibition of microbial growth incubated for 64 hrs by broth-microdilution assay; type: functional
[14] = Toxicity in Kunming mouse assessed as change in AST level at 2 mg/kg, iv (reference value: 91.5 +/- 7.2 IU/L); type: organism-based; conditions: in vivo
[15] = Volume of distribution at steady state in rat at 2 mg/kg, iv measured upto 24 hrs by LC-MS/MS analysis; type: ADME, organism-based; conditions: in vivo, read-out: Vdss
Klebsiella pneumoniae [16] = experiment: Antimicrobial activity against Klebsiella pneumoniae ATCC 13883 assessed as inhibition zone; type: functional
Klebsiella pneumoniae [17] = experiment: Downregulation of PD-1 expression in Klebsiella pneumoniae ATCC 13883 by Western blot analysis; type: functional
Klebsiella pneumoniae [18] = experiment: Downregulation of IFN-gamma expression in Klebsiella pneumoniae ATCC 13883 by immunohistochemistry analysis; type: functional
Klebsiella pneumoniae [19] = experiment: Induction of morphological changes in Klebsiella pneumoniae ATCC 13883 assessed as reduction in cell membrane thickness measured for 24 hrs by transmission electron microscopy analysis; type: functional, organism-based
Escherichia coli = experiment: Antimicrobial activity against Escherichia coli ATCC 8739 assessed as inhibition of microbial growth incubated for 64 hrs by broth-microdilution assay; type: functional
Klebsiella pneumoniae [20] = experiment: Antibacterial activity against Klebsiella pneumoniae ATCC 13883 infected in Kunming mouse model assessed as reduction in bacterial proliferation at 2 mg/kg, iv; type: functional, organism-based
[21] = Toxicity in Kunming mouse assessed as side effect at 2 mg/kg, iv; type: organism-based; conditions: in vivo
[22] = Toxicity in Kunming mouse assessed as change in ALT level at 2 mg/kg, iv (reference value: 54.8 +/- 5.2 IU/L); type: organism-based; conditions: in vivo
[23] = Half life in rat at 2 mg/kg, iv measured upto 24 hrs by LC-MS/MS analysis; type: ADME, organism-based; conditions: in vivo
[24] = Toxicity in Kunming mouse assessed as change in CRE level at 2 mg/kg, iv (reference value: 16.7 +/- 1.6 micromol/L); type: organism-based; conditions: in vivo
Klebsiella pneumoniae [25] = experiment: Downregulation of IL-2 expression in Klebsiella pneumoniae ATCC 13883 by Western blot analysis; type: functional
[26] = Toxicity in Kunming mouse assessed as lung damage at 2 mg/kg, iv by masson staining based analysis; type: organism-based; conditions: in vivo
Klebsiella pneumoniae [27] = experiment: Antimicrobial activity against Klebsiella pneumoniae ATCC 13883 assessed as increase in percentage of bacterial cells by flow cytometry analysis; type: functional, organism-based
[28] = target: Programmed cell death 1 ligand 1 (Homo sapiens) (UniProt Q9NZQ7); experiment: Binding affinity to PD-L1 (unknown origin) assessed as Change in enthalpy by ITC analysis
[29] = target: T1, UDP-3-O-acyl-N-acetylglucosamine deacetylase (Escherichia coli K-12, UniProt P0A725); experiment: Binding affinity to Escherichia coli LpxC assessed as dissociation constant by SPR analysis
T1 sequence (P0A725 whole entry): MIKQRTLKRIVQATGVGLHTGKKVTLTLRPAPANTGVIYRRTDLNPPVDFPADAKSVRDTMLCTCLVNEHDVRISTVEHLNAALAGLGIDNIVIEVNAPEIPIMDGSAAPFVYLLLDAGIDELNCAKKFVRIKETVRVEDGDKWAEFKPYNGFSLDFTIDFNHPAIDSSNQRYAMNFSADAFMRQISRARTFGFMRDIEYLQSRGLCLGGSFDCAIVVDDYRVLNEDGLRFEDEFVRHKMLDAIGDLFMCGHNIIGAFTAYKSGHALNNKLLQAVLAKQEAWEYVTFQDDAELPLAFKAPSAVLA

[30] = Toxicity in Kunming mouse assessed as lung damage at 2 mg/kg, iv by H and E staining based analysis; type: organism-based; conditions: in vivo
Klebsiella pneumoniae [31] = experiment: Induction of morphological changes in Klebsiella pneumoniae ATCC 13883 assessed as reduction in cell wall thickness measured for 24 hrs by transmission electron microscopy analysis; type: functional, organism-based
Pseudomonas aeruginosa [32] = experiment: Antimicrobial activity against Pseudomonas aeruginosa ATCC 9027 assessed as inhibition zone; type: functional; conditions: time 64 hrs
Klebsiella pneumoniae [33] = experiment: Induction of intracellular ROS accumulation in Klebsiella pneumoniae ATCC 13883 incubated for 12 hrs by fluorescence microscopic analysis; type: functional, organism-based
A549 = experiment: Cytotoxicity against human A549 cells incubated for 24 hrs by CCK-8 assay; type: functional, cell-based; conditions: A549, 24 h
[34] = Toxicity in Kunming mouse assessed as body weight loss at 2 mg/kg, iv; type: organism-based; conditions: in vivo
[35] = AUC (0 to t) in rat at 2 mg/kg, iv measured upto 24 hrs by LC-MS/MS analysis; type: ADME, organism-based; conditions: in vivo
Klebsiella pneumoniae [36] = experiment: Downregulation of IL-2 expression in Klebsiella pneumoniae ATCC 13883 by immunohistochemistry analysis; type: functional
[37] = target: Programmed cell death 1 ligand 1 (Homo sapiens) (UniProt Q9NZQ7); experiment: Binding affinity to PD-L1 (unknown origin) assessed as association constant at equilibrium by ITC analysis
Klebsiella pneumoniae [38] = experiment: Antibacterial activity against Klebsiella pneumoniae ATCC 13883 infected in Kunming mouse model measured after 8 hrs; type: functional, organism-based
Klebsiella pneumoniae [39] = experiment: Antibacterial activity against Klebsiella pneumoniae ATCC 13883 infected in Kunming mouse model assessed as organised collagen fibers in skin tissue at 2 mg/kg, iv by Masson's trichome staining based analysis; type: functional, organism-based
HeLa = experiment: Cytotoxicity against human HeLa cells incubated for 24 hrs by CCK-8 assay; type: functional, cell-based
[40] = Clearance in rat at 2 mg/kg, iv measured upto 24 hrs by LC-MS/MS analysis; type: ADME, organism-based; conditions: in vivo
Klebsiella pneumoniae [41] = experiment: Downregulation of PD-L1 expression in Klebsiella pneumoniae ATCC 13883 by immunohistochemistry analysis; type: functional
[42] = Initial plasma concentration in rat at 2 mg/kg, iv measured upto 24 hrs by LC-MS/MS analysis; type: ADME, organism-based; conditions: plasma
Salmonella typhimurium = experiment: Antimicrobial activity against Salmonella typhimurium ATCC 14028 assessed as inhibition of microbial growth incubated for 64 hrs by broth-microdilution assay; type: functional, Salmonella enterica subsp. enterica serovar Typhimurium; conditions: Salmonella enterica
[43] = target: T1, UDP-3-O-acyl-N-acetylglucosamine deacetylase; experiment: Inhibition of Escherichia coli LpxC
[44] = Binding affinity to PD-L1 (unknown origin) assessed as dissociation constant by SPR analysis; design: species or system Homo sapiens

Programmed cell death 1 ligand 1 (Homo sapiens), sequence (Q9NZQ7 whole entry): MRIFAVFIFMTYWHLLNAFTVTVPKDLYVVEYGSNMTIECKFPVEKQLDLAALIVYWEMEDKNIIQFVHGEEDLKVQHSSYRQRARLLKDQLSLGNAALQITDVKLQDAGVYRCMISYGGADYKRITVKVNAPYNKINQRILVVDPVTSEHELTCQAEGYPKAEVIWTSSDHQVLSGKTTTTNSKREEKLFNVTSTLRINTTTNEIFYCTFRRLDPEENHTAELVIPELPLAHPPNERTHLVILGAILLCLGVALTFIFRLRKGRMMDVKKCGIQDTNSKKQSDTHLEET
Programmed cell death protein 1/Programmed cell death 1 ligand 1, sequence (Q15116 whole entry): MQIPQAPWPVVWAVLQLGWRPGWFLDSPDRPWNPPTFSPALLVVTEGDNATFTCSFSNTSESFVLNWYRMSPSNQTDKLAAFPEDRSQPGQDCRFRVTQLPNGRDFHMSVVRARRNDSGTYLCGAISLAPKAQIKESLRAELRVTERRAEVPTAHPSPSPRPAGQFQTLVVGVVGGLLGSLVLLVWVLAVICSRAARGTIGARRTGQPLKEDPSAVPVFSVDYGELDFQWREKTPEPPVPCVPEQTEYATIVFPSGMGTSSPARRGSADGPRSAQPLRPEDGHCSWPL
Programmed cell death protein 1/Programmed cell death 1 ligand 1, sequence (Q9NZQ7 whole entry): as the sequence (Q9NZQ7 whole entry) above

SMILES: Cc1c(COc2cccc(CNC(C(=O)NO)C(C)O)c2)cccc1-c1ccccc1 (stereo not drawn)
- MIC50 (Pseudomonas aeruginosa [1]): 0.5 µg/mL
- Activity (Klebsiella pneumoniae [2]): Active
- Activity [3]: 8.6 mmol/L
- Activity (Klebsiella pneumoniae [4]): Active
- Activity (Klebsiella pneumoniae [5]): Active
- Activity (Klebsiella pneumoniae [6]): Active
- Activity (Klebsiella pneumoniae [7]): Active
- Activity (Klebsiella pneumoniae [8]): Active
- Activity (Klebsiella pneumoniae [9]): Active
- Activity (Klebsiella pneumoniae [10]): Active
- Activity (Klebsiella pneumoniae [11]): Active
- IC50 [12]: 81 nM
- MIC50 (Klebsiella pneumoniae [13]): 0.25 µg/mL
- Activity [14]: 104.2 IU/L
- Vd [15]: 5.71 L/kg
- inhibition zone (IZ) (Klebsiella pneumoniae [16]): 14.7 mm
- Activity (Klebsiella pneumoniae [17]): Active
- Activity (Klebsiella pneumoniae [18]): Active
- Activity (Klebsiella pneumoniae [19]): Active
- MIC50 (Escherichia coli): 0.5 µg/mL
- Activity (Klebsiella pneumoniae [20]): Active
- Activity [21]: Non-toxic
- Activity [22]: 34.5 IU/L
- half-life [23]: 2.39 h
- Activity [24]: 12.5 µmol/L
- Activity (Klebsiella pneumoniae [25]): Active
- Activity [26]: Non-toxic
- Activity (Klebsiella pneumoniae [27]): Active
- deltaH [28]: 1.79 kcal/mol
- Kd [29]: 0.357 nM
- Activity [30]: Non-toxic
- Activity (Klebsiella pneumoniae [31]): Active
- inhibition zone (IZ) (Pseudomonas aeruginosa [32]): 14.2 mm
- Activity (Klebsiella pneumoniae [33]): Active
- IC50 (A549): > 50000 nM
- Activity [34]: Non-toxic
- AUC(0-t) at 24 h [35]: 431 ng·h/mL
- Activity (Klebsiella pneumoniae [36]): Active
- Ka [37]: 6.04 10^5/M
- Activity (Klebsiella pneumoniae [38]): Active
- Activity (Klebsiella pneumoniae [39]): Active
- IC50 (HeLa): > 50000 nM
- clearance [40]: 63.7 mL/min/kg
- Activity (Klebsiella pneumoniae [41]): Active
- C0 at 24 h [42]: 649 ng/mL
- MIC50 (Salmonella typhimurium): 0.5 µg/mL
- IC50 [43]: 5200 nM
- Kd [44]: 0.523 nM
